Data from ChEMBL document CHEMBL5365500, “Development and Antibacterial Properties of 4-[4-(Anilinomethyl)-3-phenylpyrazol-1-yl]benzoic Acid Derivatives as Fatty Acid Biosynthesis Inhibitors” (J Med Chem, 2023).
Values after ≈ are worked out from the molar mass of the structure shown. Active and inactive are the calls of the source. The calls are words filed in the database; no cut-off is given here.

What was measured:
Enterococcus faecium [1] = assay: Antimicrobial activity against antibiotic-resistant Enterococcus faecium ATCC 700221 assessed as inhibition of visible growth measured after 20 to 24 hrs incubation by CLSI method; format: functional; details: time 20-24 hrs
Staphylococcus aureus [2] = assay: Antimicrobial activity against antibiotic-susceptible Staphylococcus aureus ATCC 25923 assessed as inhibition of biofilm formation on plastic coverslips at 0.5 times of MIC measured after 24 hrs by electron microscopy; format: functional, organism-based
Staphylococcus aureus [3] = assay: Antimicrobial activity against antibiotic-susceptible Staphylococcus aureus ATCC 25923 assessed as inhibition of biofilm formation after 24 hrs incubation by Real-time monitoring method; format: functional
Enterococcus faecalis [4] = assay: Antimicrobial activity against antibiotic-resistant Enterococcus faecalis ATCC 51299 assessed as inhibition of visible growth measured after 20 to 24 hrs incubation by CLSI method; format: functional; details: time 20-24 hrs
Staphylococcus aureus [5] = assay: Antimicrobial activity against Staphylococcus aureus ATCC 25923 assessed as eradication of biofilm measured after 24 hrs incubation by Calgary method; format: functional
Staphylococcus aureus [6] = assay: Antimicrobial activity against Staphylococcus aureus ATCC 25923 assessed as inhibition of biofilm formation by measuring prevention of turbidity after 24 hrs incubation by Real-time monitoring method; format: functional
Enterococcus faecium [7] = assay: Antimicrobial activity against Enterococcus faecium […] assessed as inhibition of biofilm formation after 24 hrs incubation by Real-time monitoring method; format: functional
Bacillus subtilis = assay: Antimicrobial activity against antibiotic-resistant Bacillus subtilis ATCC 6623 assessed as inhibition of visible growth measured after 20 to 24 hrs incubation by CLSI method; format: functional; details: time 20-24 hrs
Staphylococcus aureus [8] = assay: Antimicrobial activity against antibiotic-susceptible Staphylococcus aureus ATCC 25923 assessed as inhibition of biofilm formation by measuring prevention of turbidity after 24 hrs incubation by Real-time monitoring method; format: functional
Enterococcus faecalis [9] = assay: Antimicrobial activity against antibiotic-susceptible Enterococcus faecalis ATCC 29212 assessed as inhibition of biofilm formation by measuring prevention of turbidity after 24 hrs incubation by Real-time monitoring method; format: functional
Staphylococcus aureus [10] = assay: Antimicrobial activity against clinical isolate Staphylococcus aureus Smu57 assessed as inhibition of growth measured after 20 to 24 hrs incubation by CLSI method; format: functional; details: time 20-24 hrs
Staphylococcus aureus [11] = assay: Antimicrobial activity against antibiotic-resistant Staphylococcus aureus ATCC 33591 assessed as inhibition of visible growth measured after 20 to 24 hrs incubation by CLSI method; format: functional; details: time 20-24 hrs
Staphylococcus aureus [12] = assay: In vivo antimicrobial activity against Staphylococcus aureus USA300 infected in Caenorhabditis elegans AU37 nematodes assessed as viability of nematodes incubated for 5 days by susceptibility test; format: functional; details: USA300, 120 h, time 5 day
HEK293 = assay: Cytotoxicity against human HEK293 cells assessed as cell viability measured after 24 hrs by resazurin assay; format: toxicity, cell-based
Cell membrane [13] = assay: Induction of membrane permeability in Staphylococcus aureus ATCC 700699 assessed as increase in fluorescence at 8 times of MIC incubated for 15 mins measured for 1 hr by propidium iodide/real time fluorescence based flow cytometry; format: subcellular
Cell membrane [14] = assay: Induction of membrane damage in Staphylococcus aureus ATCC 700699 assessed as cell surface damage at 1 to 4 times of MIC measured after 30 mins by Scanning electron microscopy; format: subcellular
Staphylococcus aureus [15] = assay: Antimicrobial activity against methicilline-resistant Staphylococcus aureus ATCC 700699 persisters assessed as reduction in initial persister concentration at 16 times of MIC concentration measured for 6 hrs by Persisters time course assay; format: functional, organism-based
[16] = Toxicity in Caenorhabditis elegans AU37 assessed as survival at 4 ug/ml measured for 4 days; details: 96 h, dose 4 µg/ml, time 4 day
Cell membrane [17] = assay: Induction of membrane permeability in Staphylococcus aureus ATCC 700699 assessed as increase in fluorescence intensity at 1 times of MIC incubated for 15 mins measured for 1 hr by propidium iodide/real time fluorescence based flow cytometry Rvb = 3.5); details: time 75.0 min
Staphylococcus aureus [18] = assay: Antimicrobial activity against methicilline-resistant Staphylococcus aureus ATCC 700699 persisters assessed as reduction in initial persister concentration at 8 times of MIC concentration measured for 8 hrs by Persisters time course assay; format: functional
Staphylococcus aureus [19] = assay: Antimicrobial activity against Staphylococcus aureus UAB159 assessed as inhibition of growth measured after 20 to 24 hrs incubation by CLSI method; format: functional; details: time 20-24 hrs
Enterococcus faecalis [20] = assay: Antimicrobial activity against Enterococcus faecalis ATCC 29212 assessed as inhibition of biofilm formation by measuring prevention of turbidity after 24 hrs incubation by Real-time monitoring method; format: functional
Staphylococcus aureus [21] = assay: Antimicrobial activity against clinical isolate Staphylococcus aureus Smu81 assessed as inhibition of growth measured after 20 to 24 hrs incubation by CLSI method; format: functional; details: time 20-24 hrs
Staphylococcus aureus [22] = assay: Antimicrobial activity against antibiotic-resistant Staphylococcus aureus ATCC 33592 assessed as inhibition of visible growth measured after 20 to 24 hrs incubation by CLSI method; format: functional; details: time 20-24 hrs
[23] = Toxicity in Caenorhabditis elegans AU37 assessed as survival at 20 ug/ml measured for 4 days; details: at 20 µg/mL, time 4 day
Staphylococcus aureus [24] = assay: Antimicrobial activity against clinical isolate Staphylococcus aureus Smu21 assessed as inhibition of growth measured after 20 to 24 hrs incubation by CLSI method; format: functional; details: time 20-24 hrs
[25] = tested on: Panel NCI-60 (60 carcinoma cell lines); assay: Cytotoxicity against human panel NCI-60 (60 carcinoma cell lines)cells assessed as cell viability at 10 uM measured after 24 hrs by resazurin assay; format: functional, cell-based
Cell membrane [26] = assay: Induction of membrane permeability in Staphylococcus aureus ATCC 700699 assessed as increase in fluorescence intensity at 2 times of MIC incubated for 15 mins measured for 1 hr by propidium iodide/real time fluorescence based flow cytometry Rvb = 3.5); format: subcellular; details: time 75.0 min
Staphylococcus aureus [27] = assay: In vivo antimicrobial activity against Staphylococcus aureus UAMS-1 infected in Caenorhabditis elegans AU37 nematodes assessed as viability of nematodes incubated for 5 days by susceptibility test; format: functional; details: UAMS-1, 120 h, time 5 day
Staphylococcus aureus [28] = assay: Antimicrobial activity against antibiotic-resistant Staphylococcus aureus ATCC BAA-2312 assessed as inhibition of visible growth measured after 20 to 24 hrs incubation by CLSI method; format: functional; details: time 20-24 hrs
Staphylococcus aureus [29] = assay: Antimicrobial activity against clinical isolate Staphylococcus aureus Smu9 assessed as inhibition of growth measured after 20 to 24 hrs incubation by CLSI method; format: functional; details: time 20-24 hrs
Staphylococcus aureus [30] = assay: Antimicrobial activity against Staphylococcus aureus ATCC 25923 assessed as inhibition of visible growth measured after 20 to 24 hrs incubation by CLSI method; format: functional; details: time 20-24 hrs
Cell membrane [31] = assay: Induction of membrane permeability in Staphylococcus aureus ATCC 700699 assessed as increase in fluorescence at 0.5 to 2 times of MIC incubated for 15 mins measured for 1 hr by propidium iodide/real time fluorescence based flow cytometry; format: subcellular; details: time 75.0 min
Staphylococcus aureus [32] = assay: In vivo antimicrobial activity against Staphylococcus aureus Newman infected in Caenorhabditis elegans AU37 nematodes assessed as viability of nematodes incubated for 5 days by susceptibility test; format: functional; details: 120 h, time 5 day
Staphylococcus aureus [33] = assay: Antimicrobial activity against clinical isolate Staphylococcus aureus Smu109 assessed as inhibition of growth measured after 20 to 24 hrs incubation by CLSI method; format: functional; details: time 20-24 hrs
Cell membrane [34] = assay: Induction of membrane permeability in Staphylococcus aureus ATCC 700699 assessed as increase in fluorescence intensity at 4 times of MIC incubated for 15 mins measured for 1 hr by propidium iodide/real time fluorescence based flow cytometry Rvb = 3.5); details: time 75.0 min
Erythrocyte [35] = assay: Hemolytic activity in sheep red blood cells assessed as hemolysis at 64 ug/ml incubated for 30 mins relative to control; format: toxicity, cell-based, Ovis aries; details: 0.5 h, at 64 µg/mL
Erythrocyte [36] = assay: Hemolytic activity in sheep red blood cells assessed as hemolysis at 16 to 32 ug/ml incubated for 30 mins relative to control; format: toxicity, cell-based, Ovis aries; details: 0.5 h, dose 16-32 µg/ml
Staphylococcus aureus [37] = assay: Antimicrobial activity against methicilline-resistant Staphylococcus aureus ATCC 700699 persisters assessed as reduction in initial persister concentration at 2 times of MIC concentration measured for 2 to 8 hrs by Persisters time course assay; format: functional, organism-based; details: time 2-8 hrs

CN[C@H](CC(C)C)C(=O)N[C@H]1C(=O)N[C@@H](CC(N)=O)C(=O)N[C@H]2C(=O)N[C@H]3C(=O)N[C@H](C(=O)N[C@H](C(=O)O)c4cc(O)cc(O)c4-c4cc3ccc4O)[C@H](O)c3ccc(c(Cl)c3)Oc3cc2cc(c3O[C@@H]2O[C@H](CO)[C@@H](O)[C@H](O)[C@H]2O[C@H]2C[C@](C)(N)[C@H](O)[C@H](C)O2)Oc2ccc(cc2Cl)[C@H]1O [VANCOMYCIN]
MIC (Enterococcus faecium [1]): > 32 µg/mL | Activity (Staphylococcus aureus [2]): Active | MBIC (Staphylococcus aureus [3]): >16 µg/mL | MIC (Enterococcus faecalis [4]): > 32 µg/mL | MBEC (Staphylococcus aureus [5]): >32 µg/mL | MIC (Staphylococcus aureus [6]): 8 µg/mL (≈ 5.52 µM) | MBIC (Enterococcus faecium [7]): >16 µg/mL | MIC (Bacillus subtilis): 0.25 µg/mL (≈ 0.173 µM) | MBBC (Staphylococcus aureus [8]): >16 µg/mL | MBBC (Enterococcus faecalis [9]): >16 µg/mL

O=C(O)c1ccc(-n2cc(CNc3cc(Br)cc(C(F)(F)F)c3)c(-c3ccc(F)c(F)c3)n2)cc1
MIC (Staphylococcus aureus [10]): 2 µg/mL (≈ 3.62 µM) | MIC (Staphylococcus aureus [11]): 1 µg/mL (≈ 1.81 µM) | MIC (Staphylococcus aureus [12]): 1 µg/mL (≈ 1.81 µM) | Activity (Staphylococcus aureus [2]): Active | IC50 (HEK293): 27 µg/mL (≈ 48.9 µM) | Activity (Cell membrane [13]): inactive | Activity (Cell membrane [14]): Active | Activity (Staphylococcus aureus [15]): Active | Activity [16]: Non-Toxic | Activity (Cell membrane [17]): 18.5% | log(activity) (Staphylococcus aureus [18]): 6 | MIC (Staphylococcus aureus [19]): 4 µg/mL (≈ 7.24 µM) | MIC (Enterococcus faecalis [20]): 4 µg/mL (≈ 7.24 µM) | MIC (Staphylococcus aureus [6]): 2 µg/mL (≈ 3.62 µM) | MBIC (Enterococcus faecium [7]): 4 µg/mL | MIC (Staphylococcus aureus [21]): 4 µg/mL (≈ 7.24 µM) | MIC (Bacillus subtilis): 0.5 µg/mL (≈ 0.905 µM) | MIC (Staphylococcus aureus [22]): 1 µg/mL (≈ 1.81 µM) | survival at 96 h, 20 ug/ml [23]: > 80% | MIC (Staphylococcus aureus [24]): 2 µg/mL (≈ 3.62 µM) | Activity [25]: inactive | Activity (Cell membrane [26]): 32.8% | MIC (Staphylococcus aureus [27]): 1 µg/mL (≈ 1.81 µM) | MIC (Staphylococcus aureus [28]): 1 µg/mL (≈ 1.81 µM) | MIC (Staphylococcus aureus [29]): 2 µg/mL (≈ 3.62 µM) | MIC (Staphylococcus aureus [30]): 1 µg/mL (≈ 1.81 µM) | Activity (Cell membrane [31]): inactive | MIC (Staphylococcus aureus [32]): 1 µg/mL (≈ 1.81 µM) | MIC (Staphylococcus aureus [33]): 2 µg/mL (≈ 3.62 µM) | MBBC (Staphylococcus aureus [8]): 8 µg/mL | Activity (Cell membrane [34]): 96.7% | Activity (Erythrocyte [35]): < 10% | Activity (Erythrocyte [36]): Non-Toxic | Activity (Staphylococcus aureus [37]): inactive | MBBC (Enterococcus faecalis [9]): 8 µg/mL
